The record followed here is ChEMBL document CHEMBL6134926, “Targeting KRAS G12D Mutations: Advances in Small Molecule Inhibitors and PROTAC Technology” (ACS Med Chem Lett, 2025).

By IC50 is commonly meant the concentration that inhibits the measured activity by half.

Experiment [1] in a line: Inhibition of ERK phosphorylation in human GP2d cells harboring KRAS G12D mutant incubated for 3 hrs by ICW assay. It is filed as cell-based.
In the next experiment the target is SOS1-KRAS (Homo sapiens, UniProt P01116, G12D). Put plainly: Inhibition of GST-tagged KRAS G12D mutant (2 to 169 residues) (unknown origin)/SOS1 catalytic domain (564 to 1069 residues) (unknown origin) protein-protein interaction preincubated with compound for 90 mins followed by SOS1 and GTP-DY-647P1 addition and measured after 30 mins by fluorescence based nucleotide exchange assay. The class given is protein-complex assay.

A short description of experiment [2]: Inhibition of GST-tagged KRAS G12V mutant (2 to 169 residues) (unknown origin)/SOS1 catalytic domain (564 to 1069 residues) (unknown origin) protein-protein interaction preincubated with compound for 90 mins followed by SOS1 and GTP-DY-647P1 addition and measured after 60 mins by fluorescence based nucleotide exchange assay. Also noted: species or system Homo sapiens.

Consider `CN(C)C(=O)c1nn2c(c1Cl)CN(c1nc(OC[C@@]34CCCN3C[C@H](F)C4)nc(N3CCC(c4c(Cl)sc(N)c4C#N)C3)c1C#N)CCC2` (stereo partly specified), for which the IC50 was 10 nM in experiment [1], less than 10 nM on SOS1-KRAS and less than 10 nM in experiment [2].
Consider `CN(C)C(=O)c1nn2c(c1Cl)CN(c1nc(OC[C@@]34CCCN3C[C@H](F)C4)nc(N3CC(c4csc(N)c4C#N)C3)c1C#N)CCC2`, for which the IC50 in experiment [1] was 100 nM; on SOS1-KRAS, less than 10 nM; in experiment [2] it was less than 10 nM.
Regarding `CC1(c2csc(N)c2C#N)CN(c2nc(OC[C@@]34CCCN3C[C@H](F)C4)nc(N3C[C@H]4CC[C@@H](C3)N4)c2C#N)C1`, the IC50 was 10 nM in experiment [1] and less than 10 nM at SOS1-KRAS.
For the molecule `CN(C)C(=O)c1nn2c(c1Cl)CN(c1cc(N3CC(C)(c4csc(N)c4C#N)C3)nc(OC[C@@]34CCCN3C[C@H](F)C4)n1)CCC2`, the values for the 50% inhibitory concentration (IC50) (in experiment [1]; on SOS1-KRAS) were 1000 nM and 10 nM, respectively.
For `CN(C)C(=O)c1nn2c(c1Cl)CN(c1nc(OC[C@@]34CCCN3C[C@H](F)C4)nc(N3CC(c4c(Cl)sc(N)c4C#N)C3)c1C#N)CCC2`, the IC50 is 1 nM in experiment [1], less than 10 nM at SOS1-KRAS and less than 10 nM in experiment [2].
Take `C[C@H](c1cccnc1N)N(C)c1nc(OC[C@@]23CCCN2C[C@H](F)C3)nc(N2CC(C)(c3csc(N)c3C#N)C2)c1C#N`: the IC50 is 10 nM in experiment [1], less than 10 nM on SOS1-KRAS and less than 10 nM in experiment [2].
